Measurements published in patent US12447145B2, “Compositions and methods for treating inflammatory neurological disorders” (Georgetown University, priority 2018, dated 2025).

How the values were obtained:
[1] = tested on: EAE mice; assay: Experimental autoimmune encephalomyelitis (EAE) mouse model, clinical scoring; format: in vivo, C57BL/6 female mice
Text: C57BL/6 female mice (Charles River) at age 10-12 weeks were acclimatized for 7 days prior to inducing experimental autoimmune encephalomyelitis (EAE). EAE was induced using the EAE kit (Hooke Laboratories, Cat. No: EK-2110) according to the Hooke Laboratories protocol (on the world wide web at hookelabs.com/protocols/eaeAI_C57BL6.html). Briefly, mice were immunized by an emulsion of MOG35-55 in complete Freund's adjuvant (CFA) injected subcutaneously at two sites (Day 0), followed by administration of pertussis toxin (PTX) intraperitoneally, first on the day of immunization (Day 0), and then again the following day (Day 1). Approximately 115 ng of PTX for each of the two PTX administrations were used.
The mice were scored blindly and daily from EAE Day 7 until at least EAE Day 30 according to the protocol from Hooke Laboratories. The scoring system used was as follows: 0.0=no obvious changes in motor function; 0.5=tip of tail is limp; 1.0=limp tail; 1.5=limp tail and hind leg inhibition; 2.0=limp tail and weakness of hind legs or signs of head tilting; 2.5=limp tail and dragging of hind legs or strong head tilting; 3.0=limp tail and complete paralysis of hind legs or limp tail with paralysis of one front and one hind leg; 3.5=limp tail and complete paralysis of hind legs plus mouse unable to right itself when placed on its side; 4.0=limp tail, complete hind leg and partial front leg paralysis, mouse is minimally moving but appears alert and feeding; 4.5=complete hind and partial front leg paralysis, no movement around the cage, mouse is not alert; 5.0=mouse is found dead due to paralysis or mouse is euthanized due to severe paralysis
The clinical scores and weight of mice were recorded daily until the end of experiment. […] For each experiment, 8 to 10 mice from each group were analyzed.
EAE mice were treated with L-type amino acid transporter 1 (LAT1) inhibitor JPH203 dihydrochloride starting at scores 1.0 and 3.0. […] Clinical scores of the animals from each group were recorded at 1-7 days after the first injection.

[2] = tested on: CNS lesions (lysolecithin-induced focal demyelination); assay: Lysolecithin-induced focal demyelination of the spinal cord, immunohistochemistry of lesions; format: in vivo, mice
Protocol: Focal demyelination was induced by injecting 1% lysolecithin (Sigma-Aldrich) into the spinal cord ventral funiculus of 8-12 weeks old C57B1/6 mice of either sex. At 5 and 10 days post lesion (dpl), mice were perfused intracardially with 4% (w/v) paraformaldehyde (PFA; Sigma). To perform IHC, mice were perfusion-fixed with 4% PFA (Sigma). Spinal cords were dissected and postfixed for 30 min in 4% PFA at 4° C. and cryoprotected in 20% (w/v) sucrose (Sigma) in PBS overnight before freezing in O.C.T. on the surface of dry ice. Twelve-micrometer-thick spinal cord sections were cut using cryostat (Leica CM1900), collected on SuperFrostPlus slides (VWR International), and allowed to dry for 30 min before storing at −80° C. For IHC, sections were incubated in blocking solution (0.1% Triton™ X-100 and 10% FBS in PBS) for 1 h at room temperature (RT). Primary antibodies were diluted in blocking solution and applied overnight at 4° C. Fluorescent dye-conjugated secondary antibodies were obtained from Life Technologies and used according to the manufacturer's instruction. Focal demyelination was induced by injecting 1% lysolecithin, JPH203 or PBS control was injected via intraperitoneal from 5-9 dpl. Mice were sacrificed at 10 dpl by intracardial perfusion with 4% PFA (Sigma). IHC was performed as previously described. Twelve-micrometer-thick fixed spinal cord sections were cut using cryostat (Leica CM1900), collected on SuperFrostPlus slides (VWR International), and allowed to dry for 30 min before storing at −80° C. For IHC, sections were incubated in blocking solution (0.1% Triton™ X-100 and 10% FBS in PBS) for 1 h at room temperature (RT). Primary antibodies were diluted in blocking solution and applied overnight at 4° C. Sources and dilutions of primary antibodies were as follows: rabbit anti-Olig2 (1:300; Millipore), mouse anti-CC1 (1:200; Sigma). Fluorescent dye-conjugated secondary antibodies were obtained from Life Technologies and used according to the manufacturer's instruction. Antigen retrieval was used for Olig2 and mouse on mouse antigen retrieval with M.O.M.™ kit (Vector Laboratories) for CC1. DAPI nuclear counterstain was used before mounting sections with fluoromount-G (Southern-Biotech). ImageJ (NIH) was used to quantify Olig2+ CC1+ cells.

Q: With `Nc1cc(COc2c(Cl)cc(C[C@H](N)C(=O)O)cc2Cl)c2oc(-c3ccccc3)nc2c1` [JPH203, (S)-2-Amino-3-(4-((5-amino-2-phenylbenzo[d]oxazol-7-yl)methoxy)-3,5-dichlorophenyl) propanoic acid] as the compound, how does the “progression of EAE to higher scores” value ([1]; prophylactic treatment starting at score 1.0, PBS controls progressed to score 3.0 or higher, FIG. 2B) read?
A: prevented progression of EAE to higher scores

Q: What about the “motor recovery (clinical score), prophylactic efficacy” value ([1]; treatment starting at clinical score 1.0, 25 mg/kg intraperitoneal daily for 5 days, compared to PBS control, FIG. 2B) of the same compound?
A: motor recovery

Q: And the “motor recovery (clinical score), treatment efficacy” value ([1]; treatment starting at clinical score 3.0, 25 mg/kg intraperitoneal daily for 5 days, compared to PBS control, FIG. 2A)?
A: motor recovery

Q: And the “macrophage morphology in lesion at higher magnification” value ([2]; 10 dpl, control lesion macrophages rounded amoeboid/foamy, FIG. 3F/3G)?
A: more ramified appearance, indicating reduced inflammatory activity

Q: And the “iNOS labeling of macrophages at higher magnification” value ([2]; 10 dpl, versus control lesion, FIG. 3F/3G)?
A: very little iNOS labeling

Q: And the “number of mature oligodendrocytes in lesions” value ([2]; intraperitoneal injection 5-9 dpl, analysis at 10 dpl, compared to PBS control, FIG. 3A/3B)?
A: increased number of mature oligodendrocytes in lesions

Q: What about the “increase in oligodendrocytes (Olig2+ CC1+ cells), quantification” value ([2]; intraperitoneal injection 5-9 dpl, analysis at 10 dpl, versus PBS control, FIG. 3C, P<0.05) of the same compound?
A: 2 fold

Q: What about the “pro-inflammatory iNOS expression in lesion (Iba1+iNOS+ microglia/macrophages)” value ([2]; intraperitoneal injection 5-9 dpl, analysis at 10 dpl, versus PBS treated lesion, FIG. 3D/3E) of the same compound?
A: dramatically reduced pro-inflammatory iNOS expression
